US20040229825A1, “Pharmaceutical composition for treatment of infection with drug resistant bacterium and disinfectant” (priority 2003, published 2004)
In brackets after ≈: the same amount, converted by molar mass. Where two headings read alike, the source gives them in different places. One block for each compound: values may come before it.

Legend:
[1] = tested on: MRSA; assay: Antibacterial activity of flavonoids on MRSA (agar plate dilution method, MIC); format: cell-based, Staphylococcus aureus; settings: flavonoid alone; for MIC50 / MIC90 / MIC range / MIC: MRSA 20 strains; for MIC: 20 h
Procedure: (§1) MRSA were employed as bacteria to be tested. The antibacterial activity was determined according to the agar plate dilution method defined by Japan Society of Chemotherapy (Chemotherapy 29(1), 76-79(1981)). The employed plate medium for the measurement of sensitivity was semisynthetic medium based on Mueller-Hinton Agar, and the bacteria solution for seeding was prepared by incubating the test bacterium in Mueller-Hinton Broth at 37° C. for 20 hours, followed by diluting in 0.85% saline to give 10^6 CFU/mL. The test samples were produced in two times-serial dilution method. To this plate medium for the measurement of sensitivity, was seeded a bacteria solution with a Micro Planter® (Sakuma Seisakusho). After incubating at 37° C. for 20 hours, a minimum inhibitory concentration (MIC) was determined. […] In addition, MIC50 indicates a concentration yielding the proliferation inhibitory effect in 50% of total number of MRSA strains, whilst MIC90 indicates a concentration yielding the proliferation inhibitory effect in 90% of total number of MRSA strains.

[2] = tested on: MRSA; assay: Enhancement of the antibacterial activity of methicillin by various flavonoids on MRSA; format: cell-based, Staphylococcus aureus
Procedure: as §1
Antibacterial Activities of Methicillin on MRSA with 50 μg/mL of Various Flavonoids

[3] = tested on: MRSA; assay: Enhancement of the antibacterial activity of various antibiotics by flavone on MRSA; format: cell-based, Staphylococcus aureus; settings: for MIC: Staphylococcus aureus, antibiotics alone; for MIC +flavone: addition of 50 μg/mL of flavone
Procedure: as §1
Antibacterial Activities of Various β-Lactam Antibiotics on MRSA with 50 μg/mL of Flavone

[4] = tested on: penicillinase producing Staphylococcus aureus; assay: Effects of flavone in combination with benzylpenicillin or methicillin on penicillinase producing Staphylococcus aureus; format: cell-based
Procedure: as §1
The effects of flavone in combination with benzylpenicillin or methicillin on penicillinase producing Staphylococcus aureus are shown in Table 4.
Effects of Flavone in Combination with Benzylpenicillin or Methicillin on Penicillinase Producing Staphylococcus aureus.

[5] = tested on: MRSA infected mouse; assay: Antibacterial activity on MRSA infected mouse (survival rate after 5 days); format: in vivo
Procedure: MRSA was incubated with Brain-Heart Infusion medium at 37° C. for 18 hours, and then the bacteria were collected and washed, followed by resuspension in saline. The suspension was admixed in an aqueous 5% gastric mucin solution and the concentration was adjusted to a predetermined value. Then, 0.2 mL of the mixture was intraperitoneally administered to an ICR strain SPF mouse. At one hour after the infection, various concentrations of β-lactam agents and rutin (0.2 mL) was subcutaneously administered, and survival rate was analyzed after 5 days and thus the effectiveness was evaluated. In addition, the effectiveness by oral administration (0.2 mL) was evaluated and various concentrations of β-lactam agents and rutin (0.2 mL) were administered using a gastric probe 1 hour or 5 hours prior to the infection.

[6] = Dissolution of rutin (auxiliary effects of L-arginine hydrochloride and L-cysteine); solubility in water; format: physicochemical
Procedure: To the solution B, is added 3.5 mL of the solution A. After adjusting the pH of the mixture to 8.5 with HCl, the mixture is filtered to give an injectable.

[7] = Staphylococcus aureus, read-out: MIC50
[8] = Staphylococcus aureus, read-out: MIC90
[9] = antibiotic alone, 0.5 mg/mouse, after 5 days
[10] = antibiotic alone, 1 mg/mouse, after 5 days
[11] = antibiotic alone, 5 mg/mouse, after 5 days
[12] = antibiotic alone, 10 mg/mouse, after 5 days
[13] = antibiotic alone, 15 mg/mouse, after 5 days
[14] = oral, antibiotic 10 mg/mouse with rutin 5 mg/mouse
[15] = oral, antibiotic 10 mg/mouse with rutin 10 mg/mouse
[16] = oral, antibiotic 15 mg/mouse with rutin 5 mg/mouse
[17] = oral, antibiotic 15 mg/mouse with rutin 10 mg/mouse
[18] = subcutaneous, antibiotic 10 mg/mouse with rutin 5 mg/mouse
[19] = subcutaneous, antibiotic 10 mg/mouse with rutin 10 mg/mouse
[20] = subcutaneous, antibiotic 15 mg/mouse with rutin 5 mg/mouse
[21] = subcutaneous, antibiotic 15 mg/mouse with rutin 10 mg/mouse

SMILES: O=C1c2ccc(O)cc2OC(c2cc(O)c(O)c(O)c2)C1O (stereo in doubt) [dihydrorobinetin]
MIC50 [1]: 250 µg/mL (≈ 822 µM)
MIC90 [1]: 250 µg/mL (≈ 822 µM)
MIC range [1]: 250 µg/mL (≈ 822 µM)

SMILES: O=c1cc(-c2ccc(O)c(O)c2)oc2ccccc12 [3′,4′-dihydroxyflavone]
MIC ([1]; Staphylococcus aureus): 62.5 to 250 µg/mL (≈ 246 to 983 µM)
MIC50 [1, 7]: 125 µg/mL (≈ 492 µM)
MIC90 [1, 8]: 250 µg/mL (≈ 983 µM)
antibacterial activity on MRSA (in words) [1]: potent antibacterial activity

SMILES: O=c1cc(-c2ccccc2)oc2cc(O)c(O)cc12 [6,7-dihydroxyflavone]
MIC50 [1, 7]: 62.5 µg/mL (≈ 246 µM)
MIC90 [1, 8]: 125 µg/mL (≈ 492 µM)
antibacterial activity on MRSA (in words) [1]: potent antibacterial activity

SMILES: O=c1cc(-c2ccc(O)cc2)oc2cc(O)ccc12 [7,4′-dihydroxyflavone]
MIC ([1]; Staphylococcus aureus): 125 to 500 µg/mL (≈ 492 to 1970 µM)
MIC50 [1, 7]: 250 µg/mL (≈ 983 µM)
MIC90 [1, 8]: 500 µg/mL (≈ 1970 µM)

SMILES: O=c1cc(-c2ccccc2)oc2c(O)c(O)ccc12 [7,8-dihydroxyflavone]
MIC ([1]; Staphylococcus aureus): 31.3 to 125 µg/mL (≈ 123 to 492 µM)
MIC50 [1, 7]: 62.5 µg/mL (≈ 246 µM)
MIC90 [1, 8]: 125 µg/mL (≈ 492 µM)
antibacterial activity on MRSA (in words) [1]: potent antibacterial activity

SMILES: Oc1cc(O)c2c(c1)O[C@@H](c1cc(O)c(O)c(O)c1)[C@H](O)C2 [(−)-gallocatechin]
MIC of methicillin ([2]; 50 μg/mL of the named flavonoid added): 2 µg/mL

SMILES: O=C(/C=C/c1ccc(O)c(O)c1)c1ccc(O)cc1O [butein]
MIC ([1]; Staphylococcus aureus): 125 to 250 µg/mL (≈ 459 to 918 µM)
MIC50 [1, 7]: 250 µg/mL (≈ 918 µM)
MIC90 [1, 8]: 250 µg/mL (≈ 918 µM)

SMILES: CC(=O)OCC1=C(C(=O)O)N2C(=O)[C@@H](NC(=O)CSc3ccncc3)[C@H]2SC1 [cefapirin]
MIC [3]: 128 µg/mL
MIC +flavone [3]: <0.016 µg/mL
survival rate [5, 9]: 20%
survival rate [5, 10]: 20%
survival rate [5, 11]: 20%
survival rate [5, 12]: 20%
survival rate [5, 13]: 40%
survival rate [5, 14]: 40%
survival rate [5, 15]: 60%
survival rate [5, 16]: 60%
survival rate [5, 17]: 80%
survival rate [5, 18]: 0%
survival rate [5, 19]: 20%
survival rate [5, 20]: 80%
survival rate [5, 21]: 100%

SMILES: Oc1cc(O)c2cc(O)c(-c3ccc(O)c(O)c3)[o+]c2c1 [cyanidin]
MIC50 [1, 7]: 250 µg/mL
MIC90 [1, 8]: > 500 µg/mL

SMILES: O=c1c(O)c(-c2ccc(O)c(O)c2)oc2cc(O)ccc12 [fisetin]
MIC ([1]; Staphylococcus aureus): 62.5 to 125 µg/mL (≈ 218 to 437 µM)
MIC50 [1, 7]: 125 µg/mL (≈ 437 µM)
MIC90 [1, 8]: 125 µg/mL (≈ 437 µM)
antibacterial activity on MRSA (in words) [1]: potent antibacterial activity

SMILES: O=c1cc(-c2ccccc2)oc2ccccc12 [flavone]
solubility in water (in words) [6]: insoluble in water
MIC50 [1, 7]: 62.5 µg/mL (≈ 281 µM)
MIC90 [1, 8]: 125 µg/mL (≈ 562 µM)

SMILES: O=C1c2ccc(O)cc2O[C@H](c2ccc(O)c(O)c2)[C@H]1O [fustin]
MIC50 [1, 7]: 500 µg/mL (≈ 1730 µM)
MIC90 [1, 8]: 500 µg/mL (≈ 1730 µM)

SMILES: COc1ccc(-c2oc3cc(O)cc(O)c3c(=O)c2O)cc1 [kaempferid]
MIC50 [1]: 125 µg/mL (≈ 416 µM)
MIC90 [1]: 125 µg/mL (≈ 416 µM)
MIC range [1]: 15.6 to 125 µg/mL
antibacterial activity on MRSA (in words) [1]: potent antibacterial activity

SMILES: O=C1C[C@@H](c2ccc(O)cc2)Oc2cc(O)ccc21 [liquiritigenin]
MIC50 [1]: 500 µg/mL (≈ 1950 µM)
MIC90 [1]: 500 µg/mL (≈ 1950 µM)
MIC range [1]: 250 to 500 µg/mL

SMILES: O=c1c(O)c(-c2ccc(O)cc2O)oc2cc(O)cc(O)c12 [morin]
MIC50 [1, 7]: 500 µg/mL (≈ 1650 µM)
MIC90 [1, 8]: > 500 µg/mL

SMILES: O=c1c(O)c(-c2cc(O)c(O)c(O)c2)oc2cc(O)cc(O)c12 [myricetin]
MIC ([1]; Staphylococcus aureus): 250 to 500 µg/mL (≈ 786 to 1570 µM)
MIC50 [1, 7]: 500 µg/mL (≈ 1570 µM)
MIC90 [1, 8]: 500 µg/mL (≈ 1570 µM)

SMILES: Cc1onc(-c2ccccc2)c1C(=O)N[C@@H]1C(=O)N2[C@@H]1SC(C)(C)[C@@H]2C(=O)O [oxacillin]
MIC [3]: 512 µg/mL
MIC +flavone [3]: 1 µg/mL
survival rate [5, 9]: 20%
survival rate [5, 10]: 0%
survival rate [5, 11]: 20%
survival rate [5, 12]: 20%
survival rate [5, 13]: 0%
survival rate [5, 14]: 20%
survival rate [5, 15]: 20%
survival rate [5, 16]: 40%
survival rate [5, 17]: 40%
survival rate ([5]; oxacillin alone, all doses): ≤ 20%
survival rate [5, 18]: 40%
survival rate [5, 19]: 80%
survival rate [5, 20]: 60%
survival rate [5, 21]: 60%

SMILES: Oc1ccc(-c2[o+]c3cc(O)cc(O)c3cc2O)cc1 [palagonidin]
MIC ([1]; Staphylococcus aureus): 250 µg/mL
MIC50 [1, 7]: 250 µg/mL
MIC90 [1, 8]: 250 µg/mL

SMILES: O=C(CCc1ccc(O)cc1)c1c(O)cc(O)cc1O [phloretin]
MIC ([1]; Staphylococcus aureus): 125 to 250 µg/mL (≈ 456 to 912 µM)
MIC50 [1, 7]: 250 µg/mL (≈ 912 µM)
MIC90 [1, 8]: 250 µg/mL (≈ 912 µM)

SMILES: C[C@@H]1O[C@@H](OC[C@H]2O[C@@H](Oc3c(-c4ccc(O)c(O)c4)oc4cc(O)cc(O)c4c3=O)[C@H](O)[C@@H](O)[C@@H]2O)[C@H](O)[C@H](O)[C@H]1O [rutin]
solubility ([6]; aqueous with cosolvent or surfactant or cyclodextrin, solution with 4 mmol L-arginine hydrochloride, 1 mmol L-cysteine, 8 mmol 1 N NaOH, adjusted to pH 8.5, precipitate removed): 49.8 mg/mL (≈ 81600 µM)
survival rate ([5]; rutin alone, oral, 1 mg/mouse): 20%
survival rate ([5]; rutin alone, oral, 5 mg/mouse): 20%
survival rate ([5]; rutin alone, oral, 10 mg/mouse): 20%
survival rate ([5]; rutin alone, oral, 15 mg/mouse): 40%
survival rate ([5]; rutin alone, subcutaneous, 1 mg/mouse): 40%
survival rate ([5]; rutin alone, subcutaneous, 5 mg/mouse): 40%
survival rate ([5]; rutin alone, subcutaneous, 10 mg/mouse): 20%
survival rate ([5]; rutin alone, subcutaneous, 15 mg/mouse): 40%

The remaining lines, values ahead:

MIC [3]: 64 µg/mL
MIC +flavone [3]: 32 µg/mL
MIC ([4]; + flavone 50 μg/mL): 0.39 µg/mL
MIC ([4]; antibiotic alone): 1.56 µg/mL
SMILES: CC1(C)S[C@@H]2[C@H](NC(=O)Cc3ccccc3)C(=O)N2[C@H]1C(=O)O [benzylpenicillin]

MIC [3]: > 256 µg/mL
MIC +flavone [3]: 4 µg/mL
SMILES: CC1(C)S[C@@H]2[C@H](NC(=O)C(C(=O)O)c3ccccc3)C(=O)N2[C@H]1C(=O)O (stereo partly shown) [carbenicillin]

MIC [3]: > 1020 µg/mL
MIC +flavone [3]: 64 µg/mL
SMILES: CO/N=C(\C(=O)N[C@@H]1C(=O)N2C(C(=O)O)=C(COC(C)=O)CS[C@H]12)c1csc(N)n1 [cefotaxime]

MIC [3]: 512 µg/mL
MIC +flavone [3]: 32 µg/mL
SMILES: CO[C@@]1(NC(=O)Cc2cccs2)C(=O)N2C(C(=O)O)=C(COC(N)=O)CS[C@@H]21 [cefoxitin]

MIC [3]: > 256 µg/mL
MIC +flavone [3]: 1 µg/mL
SMILES: CC1=C(C(=O)O)N2C(=O)[C@@H](NC(=O)[C@H](N)C3=CCC=CC3)[C@H]2SC1 [cefradine]

MIC [3]: 1020 µg/mL
MIC +flavone [3]: 512 µg/mL
SMILES: CO/N=C(\C(=O)N[C@@H]1C(=O)N2C(C(=O)O)=C(COC(N)=O)CS[C@H]12)c1ccco1 [cefuroxime]

MIC ([2]; Staphylococcus aureus, methicillin alone): 1020 µg/mL
MIC of methicillin ([2]; methicillin alone): 1024 µg/mL
MIC [3]: 1020 µg/mL
MIC +flavone [3]: 4 µg/mL
MIC ([4]; antibiotic alone): 0.98 µg/mL
SMILES: COc1cccc(OC)c1C(=O)N[C@@H]1C(=O)N2[C@@H]1SC(C)(C)[C@@H]2C(=O)O [methicillin]

MIC50 [1, 7]: 500 µg/mL (≈ 1840 µM)
MIC90 [1, 8]: > 500 µg/mL
SMILES: O=C1C[C@@H](c2ccc(O)cc2)Oc2cc(O)cc(O)c21 [naringenin]

MIC [3]: 64 µg/mL
MIC +flavone [3]: 0.002 µg/mL
SMILES: CC(=N)N1CC[C@H](SC2=C(C(=O)O)N3C(=O)[C@H]([C@@H](C)O)[C@H]3C2)C1 [panipenem]

MIC [3]: 128 µg/mL
MIC +flavone [3]: 16 µg/mL
SMILES: CC(Oc1ccccc1)C(=O)N[C@@H]1C(=O)N2[C@@H]1SC(C)(C)[C@@H]2C(=O)O (stereo partly shown) [phenethicillin]
